# Measured values from paper PMC6271131, “Inhibitory Effects of Colocasia esculenta (L.) Schott Constituents on Aldose Reductase” (Molecules, 2014).
# Values joined by “and” are separate entries in the source; they are usually repeats but may differ in a detail not shown here. Equal entries are not always repeated. Where two headings read alike, the source gives them in different places.
# Columns and labels:
# [1] = biological target: T1, rat lens aldose reductase (rAR) (Rattus norvegicus, UniProt P07943); test: Rat lens aldose reductase (rAR) inhibition, DL-glyceraldehyde substrate, NADPH decrease at 340 nm; type: biochemical; details: for IC50: Table 2 experiment
# T1 construct: The rat lens homogenate was prepared according to the method of Hayman and Kinoshita with some modifications; from tissue; host or cells: lenses of Sprague-Dawley rats (homogenate supernatant)
# Experimental: The rat lens homogenate was prepared according to the method of Hayman and Kinoshita with some modifications. Non-cataractous transparent lenses were pooled and homogenate was prepared in 0.1 M phosphate buffer saline (pH 6.2). After centrifugation at 10,000 rpm for 20 min in a refrigerated centrifuge, the supernatant, which was then collected and as the rAR, all procedures were carried out at 4 °C.
# Each 1.0 mL cuvette contained equal units of the enzyme, 0.10 M sodium phosphate buffer (pH 6.2), 0.3 mM NADPH, with or without 10 mM of the substrate and an inhibitor [10, 36].
# [2] = ABTS^+ radical assay (antioxidant)
# Experimental: The method of Re et al., [39] was used with slight modifications. ABTS diammonium salt (2 mM) and potassium persulfate (3.5 mM) were mixed, diluted in distilled water and kept in the dark at room temperature for 24 h before use. After addition of ABTS^+ solution to 10 µL of antioxidant compounds were recorded at after 10 min reaction. […] Trolox was used as positive control.
# [3] = test system: rat erythrocyte; test: Galactitol accumulation in rat erythrocytes incubated with galactose; type: cell-based; details: 30 mM galactose; for Rat Erythrocyte Galactitol Content: 5 µg/mL compound, control 86.70 ± 1.61; for decrease of galactitol accumulation in rat erythrocyte: 5 µg/mL
# Experimental: Blood sample was collected in heparin containing polypropylene tube from 10-week-old male rats. For sugar and sugar alcohol analysis, erythrocytes from heparinized blood were separated from the plasma and buffy coat by centrifuging at 2000× g for 10 min. The cells were washed thrice with normal saline (0.9% NaCl) at 4 °C. In the final washing, the cells were centrifuged at 2000× g for 10 min to obtain a consistently packed cell preparation. The packed cells (1 mL) were then incubated in a Krebs-Ringer bicarbonate buffer (pH 7.4) containing 30 mM galactose in the presence or absence of samples at 37 °C in 5% CO2 for 3 h. The erythrocytes were washed with cold saline by centrifuging at 2000× g for 10 min, precipitated by adding 6% of cold perchloric acid (3 mL), and centrifuged again at 2000× g for 10 min. The supernatant was neutralized with 2.5 M K2CO3 at 4 °C and used for galactitol determination. HPLC analysis for sugar and sugar alcohol in blood was performed with this supernatant of red blood cell homogenate after being benzoylated.
# [4] = test system: rat lenses; test: Galactitol accumulation in cultured isolated rat lenses (ex vivo); type: cell-based; details: for Galactitol Content µg/lens Wet Weight (g): 5 µg/mL compound, control 250.47 ± 5.01; for inhibition at 5 µg/mL: Rattus norvegicus, 144 h, read-out: inhibition of galactitol accumulation in isolated rat lenses; for effect on polyol accumulation in rat lenses: conclusion statement
# Experimental: Lenses isolated from 10-week-old male rats were cultured for 6 days in TC-199 medium that contained 15% fetal bovine serum 100 units/mL penicillin and 0.1 mg/mL streptomycin under sterile conditions in an atmosphere of 5% CO2 and 95% air at 37 °C. Samples were dissolved in dimethyl sulfoxide. The lenses were divided into five groups and cultured in medium containing 5 mM glucose, 30 mM galactose and rosmarinic acid or caffeic acid ethylene ester. Each lens was placed in well containing 1.0 mL of medium. Galactitol was determined by HPLC after its derivatization by reaction with benzoic acid to a fluorescent compound [37].
# [5] = biological target: T2, recombinant human aldose reductase (rhAR) (Homo sapiens, UniProt P15121); test: Kinetic analysis of aldose reductase inhibition (Lineweaver-Burk plots); type: biochemical; details: for type of inhibition: Lineweaver-Burk plots, Km unchanged, Vmax decreased; for Ki: from secondary Lineweaver-Burk plots, DL-glyceraldehyde 0.1-1 mM, read-out: inhibitory constant (Ki)
# T2 construct: purchased Wako Pure Chemical Industries (Osaka, Japan)
# Experimental: Reaction mixtures consisted of 0.1 M potassium phosphate, 0.16 mM NADPH, […] of recombinant human aldose reductase (rhAR) with varied concentrations of substrate DL-glyceraldehyde and AR inhibitor in a total volume of 200 µL. Concentrations were ranged from 0.1 to 1 mM for DL-glyceraldehyde, from 0.1 to 1 mM for active compound. Recombinant human aldose reductase activity was assayed spectrophotometrically by measuring the decrease in absorption of NADPH at 340 nm after substrate addition using a Bio Tek Power Wave XS spectrophotometer (Bio Tek Instruments, Winooski, VT, USA).
# [6] = Table 2, read-out: Inhibition (%) of rAR
# [7] = read-out: IC50 (rAR), isolated constituents (converted)
# [8] = 5 µg/mL, 30 mM galactose, 6 days
# [9] = Table 1, read-out: Aldose Reductase Inhibition (%)
SMILES,inhibition at 10 µg/mL ([1]; Table 2),"Inhibition (%) of ABTS^+ ([2]; Table 5, 16.67 µg/mL)","inhibition at 0.5 µg/mL [1, 6]","inhibition at 1 µg/mL [1, 6]",inhibition at 5 µg/mL ([1]; Table 2),"IC50 [1, 7]",IC50 ([2]; Table 5),IC50 (ABTS^+) ([2]; Table 5),"Inhibition (%) of ABTS^+ ([2]; Table 5, 1.67 µg/mL)","Inhibition (%) of ABTS^+ ([2]; Table 5, 3.33 µg/mL)","Inhibition (%) of ABTS^+ ([2]; Table 5, 8.33 µg/mL)",further results
"N[C@@H](Cc1c[nH]c2ccccc12)C(=O)O [Compound 1, tryptophan]",20 ± 2.01%,37.51 ± 2.93%,,,,,,,,,,
"O=c1cc(-c2ccc(O)c(O)c2)oc2c([C@@H]3O[C@H](CO)[C@@H](O)[C@H](O)[C@H]3O)c(O)cc(O)c12 [Compound 2, orientin]",,,35.3 ± 0.36%,64.57 ± 0.52%,94 ± 0.98%,1.65 µM,12.5 ± 0.95 µM,5.59 ± 0.42 µg/mL,17.56 ± 2.21%,31.76 ± 3.19%,72.55 ± 4.10%,"Rat Erythrocyte Galactitol Content [3]: 72.72 ± 0.98 µM; decrease of galactitol accumulation in rat erythrocyte [3]: 16.1%; Galactitol Content µg/lens Wet Weight (g) ([4]; 30 mM galactose, 6 days): 227.89 ± 4.52 µg/lens Wet Weight (g); inhibition at 5 µg/mL [4]: 9.1%; effect on polyol accumulation in rat lenses [4]: prevented the accumulation of sorbitol in rat lenses; type of inhibition [5]: noncompetitive inhibitors; Ki [5]: 3.23 µM"
"O=c1cc(-c2ccc(O)c(O)c2)oc2cc(O)c([C@@H]3O[C@H](CO)[C@@H](O)[C@H](O)[C@H]3O)c(O)c12 [Compound 3, isoorientin]",,,37.23 ± 0.37%,57.6 ± 0.58%,77.73 ± 0.77%,,14.6 ± 1.18 µM,6.53 ± 0.53 µg/mL,17.87 ± 3.08%,31.69 ± 4.94%,60.92 ± 2.81%,"IC50 ([1]; IC50 (rAR), isolated constituents): 1.92 µM; Rat Erythrocyte Galactitol Content [3]: 56.18 ± 1.00 µM; decrease of galactitol accumulation in rat erythrocyte [3]: 35.2%; Galactitol Content µg/lens Wet Weight (g) ([4]; 30 mM galactose, 6 days): 243.14 ± 4.71 µg/lens Wet Weight (g); inhibition at 5 µg/mL [4, 8]: 2.7%; effect on polyol accumulation in rat lenses [4]: prevented the accumulation of sorbitol in rat lenses; type of inhibition [5]: noncompetitive inhibitors; Ki [5]: 5.88 µM"
"O=c1cc(-c2ccc(O)cc2)oc2c([C@@H]3O[C@H](CO)[C@@H](O)[C@H](O)[C@H]3O)c(O)cc(O)c12 [Compound 4, vitexin]",48.5 ± 0.87%,46.17 ± 2.65%,,,,,,,,,,
"O=c1cc(-c2ccc(O)cc2)oc2cc(O)c([C@@H]3O[C@H](CO)[C@@H](O)[C@H](O)[C@H]3O)c(O)c12 [Compound 5, isovitexin]",76.59 ± 0.74%,44.40 ± 4.91%,,23.3 ± 0.25%,60.3 ± 0.61%,7.35 µM and 7.36 µM,,,,,,
"O=c1cc(-c2ccc(O)c(O)c2)oc2cc(O[C@@H]3O[C@H](CO)[C@@H](O)[C@H](O)[C@H]3O)cc(O)c12 [Compound 6, luteolin-7-O-glucoside]",76.2 ± 0.77%,,,19.1 ± 0.21%,61.88 ± 0.6%,7.47 µM,17.8 ± 1.51 µM,8.00 ± 0.68 µg/mL,13.49 ± 1.09%,22.66 ± 2.47%,52.11 ± 3.98%,
"C[C@@H]1O[C@@H](OC[C@H]2O[C@@H](Oc3cc(O)c4c(=O)cc(-c5ccc(O)c(O)c5)oc4c3)[C@H](O)[C@@H](O)[C@@H]2O)[C@H](O)[C@H](O)[C@H]1O [Compound 7, luteolin-7-O-rutinoside]",,79.82 ± 0.67%,29.9 ± 0.3%,40.31 ± 0.4%,72.7 ± 0.73%,2.59 µM,15.8 ± 0.8 µM,9.38 ± 0.47 µg/mL,,21.44 ± 1.46%,49.55 ± 3.91%,
"O=C(/C=C/c1ccc(O)c(O)c1)O[C@H](Cc1ccc(O)c(O)c1)C(=O)O [Compound 8, rosmarinic acid]",,,18.3 ± 0.19%,62.79 ± 0.6%,87.33 ± 0.87%,,19.2 ± 1.69 µM,6.91 ± 0.61 µg/mL,16.20 ± 3.85%,23.61 ± 2.27%,60.25 ± 4.66%,
"COc1cc(C=CC(=O)OC2OC(CO)C(O)C(O)C2O)ccc1O [Compound 9, 1-O-feruloyl-D-glucoside]",4.06 ± 0.4%,59.10 ± 2.55%,,,,,37.4 ± 0.64 µM,13.31 ± 0.23 µg/mL,,13.51 ± 1.62%,35.36 ± 1.54%,
"O=C(C=Cc1ccc(O)c(O)c1)OC1OC(CO)C(O)C(O)C1O [Compound 10, 1-O-caffeoyl-D-glucoside]",73.2 ± 0.99%,,,,55.6 ± 0.78%,14.1 µM,23.5 ± 1.43 µM,8.04 ± 0.49 µg/mL,14.07 ± 0.39%,29.84 ± 1.19%,50.87 ± 1.30%,"inhibition at 2.5 µg/mL [1, 6]: 24.7 ± 0.36%"
"O=c1c(O)c(-c2ccc(O)c(O)c2)oc2cc(O)cc(O)c12 [Quercetin, quercetin, reference compound]",,,26.3 ± 0.59%,48.6 ± 1.44%,81.14 ± 0.81%,,,,,,,"inhibition at 0.5 µg/mL [1, 9]: 31.62 ± 0.09%; inhibition at 1 µg/mL [1, 9]: 48.9 ± 0.51%; inhibition at 2.5 µg/mL [1, 9]: 69.6 ± 0.72%; IC50 ([2]; Table 4): 3.2 ± 0.12 µM; IC50 (ABTS^+) ([2]; Table 4): 0.97 ± 0.04 µg/mL; Inhibition (%) of ABTS^+ ([2]; Table 4, 0.33 µg/mL): 22.98 ± 3.55%; Inhibition (%) of ABTS^+ ([2]; Table 4, 0.83 µg/mL): 42.49 ± 3.39%; Inhibition (%) of ABTS^+ ([2]; Table 4, 1.67 µg/mL): 81.36 ± 1.75%; Rat Erythrocyte Galactitol Content [3]: 45.17 ± 0.81 µM; decrease of galactitol accumulation in rat erythrocyte [3]: 47.9%; Galactitol Content µg/lens Wet Weight (g) ([4]; 30 mM galactose, 6 days): 241.07 ± 4.57 µg/lens Wet Weight (g); inhibition at 5 µg/mL [4, 8]: 3.8%"
"Cc1c(C)c2c(c(C)c1O)CCC(C)(C(=O)O)O2 (stereo not drawn) [Trolox, reference compound]",,,,,,,,,,,,"IC50 ([2]; Table 4): 11.49 ± 0.04 µM; IC50 (ABTS^+) ([2]; Table 4): 2.87 ± 0.01 µg/mL; Inhibition (%) of ABTS^+ ([2]; Table 4, 1.67 µg/mL): 27.07 ± 1.15%; Inhibition (%) of ABTS^+ ([2]; Table 4, 3.33 µg/mL): 57.40 ± 2.03%; Inhibition (%) of ABTS^+ ([2]; Table 4, 8.33 µg/mL): 92.92 ± 0.06%"
